Results on one compound are retold here after patent publication US5925618A, “Peptides useful as somatostatin antagonists” (American Cyanamid Company, priority 1998, dated 1999).

Structures are written as SMILES. Square brackets hold non-standard residues; d marks the D form. Peptide text beside a SMILES is read from it.

The experiment has as its target T1, rat SSTR2 (Rattus norvegicus, UniProt P30680).
T1 construct: expressed in transfected cells; host or cells: GH4C1 rat pituitary tumor cells
In words: cAMP accumulation in forskolin-stimulated GH4 C1/SSTR2 cells. It counts as cell-based. The source says:
A primary effect of SRIF upon mammalian cells is the reduction of cyclic adenosine 3',5'-monophosphate(cAMP) levels, via inhibition of adenylyl cyclase. This is the basis of a common assay for SRIF agonists and antagonists, whereby SRIF agonists reduce artificially stimulated cAMP levels, and SRIF antagonists reverse the effect of SRIF. The rat pituitary tumor cell line GH4 C1 predominantly expresses SSTR2, and responds to SRIF and to forskolin, a stimulator of adenylate cyclase (see C. M. Eppler, et al., J. Biol. Chem., 267, 15603-15612, 1992, incorporated herein by reference). A highly sensitive assay for SRIF agonists and antagonists results from additionally transfecting GH4 C1 cells with the cloned rat SSTR2, (see L. A. Price, et al., Molecular and Cellular Biology, 15, 6188-6195, 1995, incorporated herein by reference). This increases the response to SRIF and provides a greater dynamic range for the measurement of SRIF antagonist activity.
Stimulation of cells. GH4 C1 /SSTR2 cells, grown in DMEM with 10% bovine serum, are released from a tissue culture dish by incubation for several minutes at 37° C. with PBS containing 0.5 mM EDTA. Cells are washed in induction buffer (PBS containing 100 μM IBMX (an inhibitor of cAMP breakdown) and 2 mM CaCl2) at room temperature, and resuspended at 2×10^6 /mL in induction buffer. Into each well of a 96-well tray are added 50 μL of a 2× concentration of stimulants in induction buffer. These include (at final concentration) 1.25 μM forskolin, 100 nM SRIF or 10 nM of the SSTR2-selective agonist MK678 and test peptides at various concentrations. To initiate stimulation of the cells, 50 μL (100,000) cells are added to each well, mixed by shaking 10 seconds on a plate shaker and placed at 37° C. for 15 minutes. Stimulation is arrested and cells are lysed by adding 15 μL 0.33N HCl to each well and incubating the plate for 30 minutes at 37° C. Samples are neutralized by addition of 15 μL 0.25N NaOH/50 mM Hepes pH 7.4. Baseline cAMP levels are determined in samples with no added forskolin or SRIF, and each treatment is performed in triplicate.
cAMP assay. To measure accumulated cAMP in the samples, a radioimmunoassay is employed. The scintillation proximity assay (SPA, Amersham, Arlington Heights, Ill.) allows the rapid measurement of ^125 I cAMP bound to a specific antibody without separating bound radioligand from free radioligand. Each of the following reagents (50 μL) are added per well in a 96-well tray: supernatants from the cell stimulation; ^125 I cAMP; SPA beads conjugated to monkey anti-rabbit IgG antibodies; and rabbit anti-cAMP antibodies. For the standard curve, known amounts of cAMP (0.2-12.8 pmol) are added in place of cell supernatants. The 96-well tray is sealed, shaken at room temperature overnight and measured for bound radioligand in a MicroBeta liquid scintillation counter (Wallac, Gaithersburg, Md.). The standard curve is determined for each experiment by performing a nonlinear regression (exponential decay) analysis of cpm measured for the cAMP standards vs. their log concentrations, and test sample values are determined by using Prism software (Graphpad Software Inc., San Diego, Calif.) and are shown in Table II and FIG. 1. FIG. I illustrates the antagonist activity of Peptide 1.
The intrinsic activity of an SRIF antagonist is the percent reversal of the SSTR2, activation by SRIF or MK678, wherein 0% is defined by cAMP levels in samples treated with forskolin plus SRIF or MK678 and 100% is the cAMP level measured after treatment with forskolin alone. Therefore, increased intrinsic activity of a test compound indicates increased antagonist activity of said test compound.
FIG. […]
An inverse agonist is a compound that is not only a pure antagonist (i.e. lacking agonist activity), but also blocks the constitutive activity of an unoccupied receptor. One indication of inverse agonist activity is the ability of a SRIF antagonist to increase cAMP levels in the absence of added SRIF. […]

T1 sequence (P30680 whole entry): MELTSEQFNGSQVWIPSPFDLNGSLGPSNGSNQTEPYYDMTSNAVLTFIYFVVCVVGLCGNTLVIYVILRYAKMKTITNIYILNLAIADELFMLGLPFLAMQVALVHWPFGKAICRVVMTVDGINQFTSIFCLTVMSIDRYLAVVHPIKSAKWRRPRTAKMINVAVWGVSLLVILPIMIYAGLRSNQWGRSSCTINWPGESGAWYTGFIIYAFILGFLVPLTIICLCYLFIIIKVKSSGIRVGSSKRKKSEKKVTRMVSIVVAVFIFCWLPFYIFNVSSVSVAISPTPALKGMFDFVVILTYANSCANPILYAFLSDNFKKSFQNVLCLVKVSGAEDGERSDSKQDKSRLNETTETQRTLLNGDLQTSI

Turning to `CC[C@@H](C)[C@@H](NC(=O)[C@@H](Cc1ccccc1)NC(=O)[C@@H](Cc1c[nH]cn1)NC(C)=O)C(=O)N[C@H](CCCNC(=N)N)C(=O)N[C@H](Cc1c[nH]c2ccccc12)C(=O)N[C@H](Cc1ccccc1)C(N)=O` [Peptide 1, h-f-i-r-w-f] (Ac-[dH][dF][dI][dR][dW][dF]-NH2), the cAMP (Forskolin 1.25 μM + MK 678 10 nM, Peptide 1 1 μM) came out at 1.14 pM per 4 × 10^4 cells; the cAMP (Forskolin 1.25 μM + MK 678 10 nM, Peptide 1 10 μM) came out at 2.69 pM per 4 × 10^4 cells; the cAMP (Forskolin 1.25 μM + MK 678 10 nM, Peptide 1 50 μM) is reported as 3.32 pM per 4 × 10^4 cells; the cAMP (Forskolin 1.25 μM, no MK 678, Peptide 1 1 μM) came out at 2.57 pM per 4 × 10^4 cells; the cAMP (Forskolin 1.25 μM, no MK 678, Peptide 1 10 μM) was found to be 3.05 pM per 4 × 10^4 cells; the cAMP (Forskolin 1.25 μM, no MK 678, Peptide 1 50 μM) came to 3.33 pM per 4 × 10^4 cells. Where the note is “S-14 or MK678 dose response with or without peptide 1”, the “mode of antagonism from agonist dose response curves” value was “directly competing with the SRIF agonists”. Besides, the “forskolin-stimulated cAMP levels in the absence of SRIF (inverse agonist activity)” value (no added SRIF) is on record as “causes an increase in forskolin-stimulated cAMP levels even in the absence of SRIF”.
